Assays:
[1] = test system: SCPJU = Schoenoplectus juncoides (Japanese bulrush); assay: Greenhouse in-water herbicidal activity (small pots); assay type: in vivo
Text: (§1) Weed seeds of the desired test plant species were planted in puddled soil (mud) prepared by mixing a non-sterilized mineral soil (approximately 50 percent silt, 26 percent clay, and 24 percent sand, with a pH of about 7.6 and an organic matter content of about 2.9 percent) and water at a 1:1 volumetric ratio. The prepared mud was dispensed in 365 milliliter (mL) aliquots into 16-ounce (oz.) non-perforated plastic pots with a surface area of 86.59 square centimeters (cm^2) leaving a headspace of 3 centimeters (cm) in each pot. Mud was allowed to dry overnight prior to planting or transplanting. Rice seeds were planted in Sun Gro® MetroMix® 360 planting mixture, which typically has a pH of 6.0 to 6.8 and an organic matter content of about 30 percent, in plastic plug trays. Seedlings at the second or third leaf stage of growth were transplanted into 840 mL of mud contained in 32-oz. non-perforated plastic pots with a surface area of 86.59 cm^2 four days prior to herbicide application. The paddy was created by filling the headspace of the pots with 2.5 to 3 cm of water. When required to ensure good germination and healthy plants, a fungicide treatment and/or other chemical or physical treatment was applied. The plants were grown for 4-22 days (d) in a greenhouse with an approximate 14-hour (h) photoperiod which was maintained at about 29° C. during the day and 26° C. during the night. Nutrients were added as Osmocote® (19:6:12, Nitrogen:Phosphorus:Potassium (N:P:K)+minor nutrients) at 2 g per 16 oz. pot and 4 g per 32 oz. pot. Water was added on a regular basis to maintain the paddy flood, and supplemental lighting was provided with overhead metal halide 1000-Watt lamps as necessary. The plants were used for testing when they reached the second or third true leaf stage.
(§2) Triclopyr triethylammonium (as Grandstand® R, 359.5 grams acid equivalent per liter (g ae/L)); fluroxypyr methylheptyl ester (meptyl or MHE, as Starane™, 179.8 g ae/L); 2,4-dichlorophenoxyacetic acid dimethylammonium (2,4-D DMA, as Weedar® 64, 455.4 g ae/L); and penoxsulam (as Grasp® SC, 239.7 grams active ingredient per liter (g ai/L) were used. Measured amounts of formulated compounds were placed in individual 120 mL glass vials and were dissolved in 40 mL of an aqueous mixture containing 1.25% volume per volume (v/v) Agri-Dex® crop oil concentrate. Generally, multiple concentrations were tested utilizing the same stock solution. Applications were made by injecting an appropriate amount of the application solution into the aqueous layer of the paddy. Control plants were treated in the same manner with the solvent blank.
(§3) The treated plants and control plants were placed in a greenhouse as described above and water was added as needed to maintain a paddy flood. After approximately 3 weeks the condition of the test plants, compared with that of the untreated plants, was determined visually and scored on a scale of 0 to 100 percent where 0 corresponds to no injury or growth reduction and 100 corresponds to complete kill.

[2] = test system: ECHCG = Echinochloa crus-galli (barnyardgrass); assay: as above; assay type: in vivo
Text: as §1, §2, §3

SMILES	Percent (%) Visual Injury Ratings - 20 DAA, SCPJU ([1]; 280 g ae/ha in-water) [%]	Percent (%) Visual Injury Ratings - 20 DAA, SCPJU ([1]; 560 g ae/ha in-water) [%]	Percent (%) Visual Injury Ratings - 20 DAA, SCPJU ([1]; 1120 g ae/ha in-water) [%]	Percent (%) Visual Injury Ratings - 20 DAA, ECHCG ([2]; 280 g ae/ha in-water) [%]	Percent (%) Visual Injury Ratings - 20 DAA, ECHCG ([2]; 560 g ae/ha in-water) [%]	Percent (%) Visual Injury Ratings - 20 DAA, ECHCG ([2]; 1120 g ae/ha in-water) [%]
O=C(O)COc1ccc(Cl)cc1Cl [2,4-D DMA (Weedar ® 64), dimethylammonium 2-(2,4-dichlorophenoxy)acetate]	70	100	100	0	20	80
CCCCCCC(C)OC(=O)COc1nc(F)c(Cl)c(N)c1Cl (stereo not drawn) [Fluroxypyr-meptyl (Starane ® Ultra), 1-methylheptyl 2-[(4-amino-3,5-dichloro-6-fluoro-2-pyridinyl)oxy]acetate]	60	90	100	0	25	99
O=C(O)COc1nc(Cl)c(Cl)cc1Cl [Triclopyr triethanolamine (Garlon ® 3A), triethylammonium 2[(3,5,6-trichloro-2-pyridinyl)oxy]acetate]	70	95	100	40	70	85

— US20170055529A1, “BROAD SPECTRUM WEED CONTROL IN FLOODED RICE BY IN-WATER APPLICATION OF AUXIN HERBICIDES” (priority 2015, published 2017)
